Results taken from patent US9951063B2, “8-(piperazin-1-yl)-1,2,3,4-tetrahydro-isoquinoline derivatives” (IDORSIA PHARMACEUTICALS LTD, priority 2014, dated 2018).

biological target: human CXCR3A (Homo sapiens (Human), UniProt P49682); experiment: FLIPR assay (inhibition of CXCL10-induced calcium signal); format: cell-based; details: engineered CHO-K1 cells expressing human CXCR3A coupled to Galpha(16); Fluo-4-AM; CXCL10 agonist 20 nM; mean values where determined several times
Method: The bioactivity of compounds is tested in a fluorometric imaging plate reader (FLIPR: Molecular Devices) using engineered CHO-K1 cells expressing the human CXCR3A (GenBank: AY242128) coupled to a G protein (Galpha(16)). Cells are plated the day prior to bioassay in F12 medium supplemented with 10% FBS and G418 and hygromycin antibiotics to maintain recombinant selection. At the day of bioassay, cells are washed and dye loaded for one hour with Fluo-4-AM (Invitrogen) in Hanks Balanced Salt Solution (Invitrogen), buffered with 20 mM Hepes at pH 7.4 and sodium bicarbonate (0.038%), containing 5 mM probenecid. This buffer, but lacking the dye and containing probenecid at a concentration of 2.5 mM, is also used for washing steps (wash buffer); or lacking both dye and probenecid but supplemented with 0.1% BSA for compound dilution steps (dilution buffer). Cells are washed free of excess dye and 60 microliter of wash buffer is added. Stock solutions of test compounds are made up at a concentration of 10 mM in DMSO, and serially diluted in dilution buffer to concentrations required for inhibition dose response curves. After a 10 minute incubation period at 37° C., 10 microliters of each compound dilution are transferred from a compound plate to the plate containing the recombinant cells in the FLIPR instrument according to the manufacturer's instructions. Following basal readings, 10 microliter CXCL10 agonist at a concentration of 20 nM (from Peprotech) is added, again using the FLIPR instrument. Changes in fluorescence are monitored before and after addition of the test compounds. Emission peak values above base level after CXCL10 addition are exported after base line subtraction.
The calculated IC50 values may fluctuate depending on the daily assay performance. Fluctuations of this kind are known to those skilled in the art. In the case where IC50 values have been determined several times for the same compound, mean values are given.

Chain of human CXCR3A (P49682 whole entry): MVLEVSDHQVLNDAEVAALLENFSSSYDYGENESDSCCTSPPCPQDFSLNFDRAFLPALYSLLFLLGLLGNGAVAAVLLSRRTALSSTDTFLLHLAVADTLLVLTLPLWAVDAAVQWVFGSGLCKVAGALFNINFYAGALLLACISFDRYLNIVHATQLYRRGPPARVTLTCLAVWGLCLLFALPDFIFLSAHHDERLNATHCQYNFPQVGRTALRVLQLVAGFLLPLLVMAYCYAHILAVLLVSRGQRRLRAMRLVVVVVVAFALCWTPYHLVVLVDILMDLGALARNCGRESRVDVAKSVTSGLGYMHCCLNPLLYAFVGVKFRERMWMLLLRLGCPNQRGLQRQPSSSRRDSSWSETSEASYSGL

Row | SMILES | IC50 [µM]
1 | CCc1csc(N2CCc3c(C(F)(F)F)ccc(N4CCN(C(=O)Cn5nc(C)cc5C)[C@H](C)C4)c3C2)n1 [Example 3, 2-(3,5-Dimethyl-pyrazol-1-yl)-1-{(R)-4-[2-(4-ethyl-thiazol-2-yl)-5-trifluoromethyl-1,2,3,4-tetrahydro-isoquinolin-8-yl]-2-methyl-piperazin-1-yl}-ethanone] | 0.0151
2 | Cc1cc(C)n(CC(=O)N2CCN(c3ccc(C(F)(F)F)c4c3CN(c3nc(C(C)(C)C)cs3)CC4)C[C@H]2C)n1 [Example 4, 1-{(R)-4-[2-(4-tert.-Butyl-thiazol-2-yl)-5-trifluoromethyl-1,2,3,4-tetrahydro-isoquinolin-8-yl]-2-methyl-piperazin-1-yl}-2-(3,5-dimethyl-pyrazol-1-yl)-ethanone] | 0.0206
3 | Cc1cc(C)n(CC(=O)N2CCN(c3ccc(C(F)(F)F)c4c3CN(c3nc(-c5ccccn5)cs3)CC4)C[C@H]2C)n1 [Example 5, 2-(3,5-Dimethyl-pyrazol-1-yl)-1-{(R)-2-methyl-4-[2-(4-pyridin-2-yl-thiazol-2-yl)-5-trifluoromethyl-1,2,3,4-tetrahydro-isoquinolin-8-yl]-piperazin-1-yl}-ethanone] | 0.011
4 | Cc1cc(C)n(CC(=O)N2CCN(c3ccc(C(F)(F)F)c4c3CN(c3ncc(Cl)s3)CC4)C[C@H]2C)n1 [Example 6, 1-{(R)-4-[2-(5-Chloro-thiazol-2-yl)-5-trifluoromethyl-1,2,3,4-tetrahydro-isoquinolin-8-yl]-2-methyl-piperazin-1-yl}-2-(3,5-dimethyl-pyrazol-1-yl)-ethanone] | 0.0181
5 | Cc1cc(C)n(CC(=O)N2CCN(c3ccc(C(F)(F)F)c4c3CN(c3nc(C#N)cs3)CC4)C[C@H]2C)n1 [Example 7, 2-(8-{(R)-4-[2-(3,5-Dimethyl-pyrazol-1-yl)-acetyl]-3-methyl-piperazin-1-yl}-5-trifluoromethyl-3,4-dihydro-1H-isoquinolin-2-yl)-thiazole-4-carbonitrile] | 0.0292
6 | Cc1ccc2nc(N3CCc4c(C(F)(F)F)ccc(N5CCN(C(=O)Cn6nc(C)cc6C)[C@H](C)C5)c4C3)sc2c1 [Example 9, 2-(3,5-Dimethyl-pyrazol-1-yl)-1-{(R)-2-methyl-4-[2-(6-methyl-benzothiazol-2-yl)-5-trifluoromethyl-1,2,3,4-tetrahydro-isoquinolin-8-yl]-piperazin-1-yl}-ethanone] | 0.0137
7 | Cc1cc(C)n(CC(=O)N2CCN(c3ccc(C(F)(F)F)c4c3CN(c3nc5ccc(F)cc5s3)CC4)C[C@H]2C)n1 [Example 10, 2-(3,5-Dimethyl-pyrazol-1-yl)-1-{(R)-4-[2-(6-fluoro-benzothiazol-2-yl)-5-trifluoromethyl-1,2,3,4-tetrahydro-isoquinolin-8-yl]-2-methyl-piperazin-1-yl}-ethanone] | 0.00945
8 | Cc1cc(C)n(CC(=O)N2CCN(c3ccc(C(F)(F)F)c4c3CN(c3ncc(Br)cn3)CC4)C[C@H]2C)n1 [Example 14, 1-{(R)-4-[2-(5-Bromo-pyrimidin-2-yl)-5-trifluoromethyl-1,2,3,4-tetrahydro-isoquinolin-8-yl]-2-methyl-piperazin-1-yl}-2-(3,5-dimethyl-pyrazol-1-yl)-ethanone] | 0.0277
9 | COc1cccc(N2CCc3c(C(F)(F)F)ccc(N4CCN(C(=O)Cn5cnc6cccnc65)[C@H](C)C4)c3C2)c1 [Example 18, 2-Imidazo[4,5-b]pyridin-3-yl-1-{(R)-4-[2-(3-methoxy-phenyl)-5-trifluoromethyl-1,2,3,4-tetrahydro-isoquinolin-8-yl]-2-methyl-piperazin-1-yl}-ethanone] | 0.013
10 | COc1nc(OC)nc(N2CCc3c(C(F)(F)F)ccc(N4CCN(C(=O)Cn5cnc6cccnc65)[C@H](C)C4)c3C2)n1 [Example 19, 1-{(R)-4-[2-(4,6-Dimethoxy-[1,3,5]triazin-2-yl)-5-trifluoromethyl-1,2,3,4-tetrahydro-isoquinolin-8-yl]-2-methyl-piperazin-1-yl}-2-imidazo[4,5-b]pyridin-3-yl-ethanone] | 0.0117
11 | C[C@@H]1CN(c2ccc(C(F)(F)F)c3c2CN(c2ccc(Cl)cc2)CC3)CCN1C(=O)Cn1cnc2cccnc21 [Example 21, 1-{(R)-4-[2-(4-Chloro-phenyl)-5-trifluoromethyl-1,2,3,4-tetrahydro-isoquinolin-8-yl]-2-methyl-piperazin-1-yl}-2-imidazo[4,5-b]pyridin-3-yl-ethanone] | 0.0299
12 | CCCc1ncc(N2CCc3c(C(F)(F)F)ccc(N4CCN(C(=O)Cn5cnc6cccnc65)[C@H](C)C4)c3C2)cn1 [Example 22, 2-Imidazo[4,5-b]pyridin-3-yl-1-{(R)-2-methyl-4-[2-(2-propyl-pyrimidin-5-yl)-5-trifluoromethyl-1,2,3,4-tetrahydro-isoquinolin-8-yl]-piperazin-1-yl}-ethanone] | 0.0107
13 | COc1ncc(N2CCc3c(C(F)(F)F)ccc(N4CCN(C(=O)Cn5nc(C)nc5C)[C@H](C)C4)c3C2)cn1 [Example 23, 2-(3,5-Dimethyl-[1,2,4]triazol-1-yl)-1-{(R)-4-[2-(2-methoxy-pyrimidin-5-yl)-5-trifluoromethyl-1,2,3,4-tetrahydro-isoquinolin-8-yl]-2-methyl-piperazin-1-yl}-ethanone] | 0.0171

Continued, values first:

Row | IC50 [µM] | SMILES
14 | 0.00447 | Cc1cc(C)n(CC(=O)N2CCN(c3ccc(C(F)(F)F)c4c3CN(c3ncc(Cn5cccn5)s3)CC4)C[C@H]2C)n1 [Example 1, 2-(3,5-Dimethyl-pyrazol-1-yl)-1-{(R)-2-methyl-4-[2-(5-pyrazol-1-ylmethyl-thiazol-2-yl)-5-trifluoromethyl-1,2,3,4-tetrahydro-isoquinolin-8-yl]-piperazin-1-yl}-ethanone]
15 | 0.00607 | Cc1cc(C)n(CC(=O)N2CCN(c3ccc(C(F)(F)F)c4c3CN(c3nc(C(F)(F)F)cs3)CC4)C[C@H]2C)n1 [Example 2, 2-(3,5-Dimethyl-pyrazol-1-yl)-1-{(R)-2-methyl-4-[5-trifluoromethyl-2-(4-trifluoromethyl-thiazol-2-yl)-1,2,3,4-tetrahydro-isoquinolin-8-yl]-piperazin-1-yl}-ethanone]
16 | 0.00888 | Cc1cc(C)n(CC(=O)N2CCN(c3ccc(C(F)(F)F)c4c3CN(c3ncc(C#N)s3)CC4)C[C@H]2C)n1 [Example 8, 2-(8-{(R)-4-[2-(3,5-Dimethyl-pyrazol-1-yl)-acetyl]-3-methyl-piperazin-1-yl}-5-trifluoromethyl-3,4-dihydro-1H-isoquinolin-2-yl)-thiazole-5-carbonitrile]
17 | 0.00658 | Cc1cc(C)n(CC(=O)N2CCN(c3ccc(C(F)(F)F)c4c3CN(c3nc5ccc(C#N)cc5s3)CC4)C[C@H]2C)n1 [Example 11, 2-(8-{(R)-4-[2-(3,5-Dimethyl-pyrazol-1-yl)-acetyl]-3-methyl-piperazin-1-yl}-5-trifluoromethyl-3,4-dihydro-1H-isoquinolin-2-yl)-benzothiazole-6-carbonitrile]
18 | 0.00939 | Cc1cc(C)n(CC(=O)N2CCN(c3ccc(C(F)(F)F)c4c3CN(c3nc5ccccc5o3)CC4)C[C@H]2C)n1 [Example 12, 1-[(R)-4-(2-Benzooxazol-2-yl-5-trifluoromethyl-1,2,3,4-tetrahydro-isoquinolin-8-yl)-2-methyl-piperazin-1-yl]-2-(3,5-dimethyl-pyrazol-1-yl)-ethanone]
19 | 0.00848 | Cc1cc(C)n(CC(=O)N2CCN(c3ccc(C(F)(F)F)c4c3CN(c3cnc(N(C)C)nc3)CC4)C[C@H]2C)n1 [Example 13, 1-{(R)-4-[2-(2-Dimethylamino-pyrimidin-5-yl)-5-trifluoromethyl-1,2,3,4-tetrahydro-isoquinolin-8-yl]-2-methyl-piperazin-1-yl}-2-(3,5-dimethyl-pyrazol-1-yl)-ethanone]
20 | 0.00358 | Cc1cc(C)n(CC(=O)N2CCN(c3ccc(C(F)(F)F)c4c3CN(c3cnc(C5CC5)nc3)CC4)C[C@H]2C)n1 [Example 15, 1-{(R)-4-[2-(2-Cyclopropyl-pyrimidin-5-yl)-5-trifluoromethyl-1,2,3,4-tetrahydro-isoquinolin-8-yl]-2-methyl-piperazin-1-yl}-2-(3,5-dimethyl-pyrazol-1-yl)-ethanone]
21 | 0.00619 | C[C@@H]1CN(c2ccc(C(F)(F)F)c3c2CN(c2ccccc2)CC3)CCN1C(=O)Cn1cnc2cccnc21 [Example 16, 2-Imidazo[4,5-b]pyridin-3-yl-1-[(R)-2-methyl-4-(2-phenyl-5-trifluoromethyl-1,2,3,4-tetrahydro-isoquinolin-8-yl)-piperazin-1-yl]-ethanone]
22 | 0.0092 | COc1ncc(N2CCc3c(C(F)(F)F)ccc(N4CCN(C(=O)Cn5cnc6cccnc65)[C@H](C)C4)c3C2)cn1 [Example 17, 2-Imidazo[4,5-b]pyridin-3-yl-1-{(R)-4-[2-(2-methoxy-pyrimidin-5-yl)-5-trifluoromethyl-1,2,3,4-tetrahydro-isoquinolin-8-yl]-2-methyl-piperazin-1-yl}-ethanone]
23 | 0.00777 | CCOc1ncc(N2CCc3c(C(F)(F)F)ccc(N4CCN(C(=O)Cn5cnc6cccnc65)[C@H](C)C4)c3C2)cn1 [Example 20, 1-{(R)-4-[2-(2-Ethoxy-pyrimidin-5-yl)-5-trifluoromethyl-1,2,3,4-tetrahydro-isoquinolin-8-yl]-2-methyl-piperazin-1-yl}-2-imidazo[4,5-b]pyridin-3-yl-ethanone]
